According to ChEMBL document CHEMBL1201862, “PubChem BioAssay data set” (2004):
The source made the active and inactive calls.

Columns and labels:
Major prion protein = Major prion protein (Homo sapiens, UniProt P04156); assay type: functional, cell-based
cells [1] = experiment: cells
Large T antigen = Large T antigen (Simian virus 40, UniProt P03070); assay type: functional, Betapolyomavirus macacae;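 also: Confirmatory-stage PubChem screen for compounds that inhibit SV40 T antigen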
[2] = Vero cell cytotoxicity, dose response, cytotoxicity control for Vif-APOBEC3G degradation inhibitor project, Vero cells (AID 1117358); assay type: functional; conditions: Human immunodeficiency virus 1, Vero
INS1 = experiment: beta cell apoptosis inhibitors, cytokine rescue, dose response, luminescence, retest (AID 449756); assay type: functional, cell-based; conditions: Rattus norvegicus;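 also: cell death triggered by IL-1 beta plus TNF-alpha plus IFN-gamma mixture; protective hits raise ATP signal compared with cytokine alone wells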
[3] = target: T1, COUP transcription factor 2 (Homo sapiens, UniProt P24468); experiment: Luminescence-based cell-based high throughput dose response assay to identify inhibitors of COUP-TFII (NR2F2).; assay type: functional;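 also: HEK293 cells transiently cotransfected with COUP-TFII expression vector and reporter; luciferase reporter luminescence driven by COUP-TFII from the pX2-168 reporter plasmid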
T1 sequence (P24468 whole entry): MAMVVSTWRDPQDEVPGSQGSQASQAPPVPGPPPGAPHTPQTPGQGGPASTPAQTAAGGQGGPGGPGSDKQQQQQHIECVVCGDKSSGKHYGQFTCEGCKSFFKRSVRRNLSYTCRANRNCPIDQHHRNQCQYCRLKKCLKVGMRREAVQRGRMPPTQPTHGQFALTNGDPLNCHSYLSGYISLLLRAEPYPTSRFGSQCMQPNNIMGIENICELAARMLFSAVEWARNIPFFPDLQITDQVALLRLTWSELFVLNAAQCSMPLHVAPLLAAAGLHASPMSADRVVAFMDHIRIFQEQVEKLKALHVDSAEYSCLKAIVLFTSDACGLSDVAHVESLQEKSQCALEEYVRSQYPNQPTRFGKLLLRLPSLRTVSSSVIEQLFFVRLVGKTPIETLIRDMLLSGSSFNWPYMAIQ

[4] = target: T2, Methionyl-tRNA synthetase, putative (Trypanosoma brucei brucei, UniProt Q38C91); assay type: functional, Trypanosoma brucei brucei strain 927/4 GUTat10.1
T2 sequence (Q38C91 whole entry): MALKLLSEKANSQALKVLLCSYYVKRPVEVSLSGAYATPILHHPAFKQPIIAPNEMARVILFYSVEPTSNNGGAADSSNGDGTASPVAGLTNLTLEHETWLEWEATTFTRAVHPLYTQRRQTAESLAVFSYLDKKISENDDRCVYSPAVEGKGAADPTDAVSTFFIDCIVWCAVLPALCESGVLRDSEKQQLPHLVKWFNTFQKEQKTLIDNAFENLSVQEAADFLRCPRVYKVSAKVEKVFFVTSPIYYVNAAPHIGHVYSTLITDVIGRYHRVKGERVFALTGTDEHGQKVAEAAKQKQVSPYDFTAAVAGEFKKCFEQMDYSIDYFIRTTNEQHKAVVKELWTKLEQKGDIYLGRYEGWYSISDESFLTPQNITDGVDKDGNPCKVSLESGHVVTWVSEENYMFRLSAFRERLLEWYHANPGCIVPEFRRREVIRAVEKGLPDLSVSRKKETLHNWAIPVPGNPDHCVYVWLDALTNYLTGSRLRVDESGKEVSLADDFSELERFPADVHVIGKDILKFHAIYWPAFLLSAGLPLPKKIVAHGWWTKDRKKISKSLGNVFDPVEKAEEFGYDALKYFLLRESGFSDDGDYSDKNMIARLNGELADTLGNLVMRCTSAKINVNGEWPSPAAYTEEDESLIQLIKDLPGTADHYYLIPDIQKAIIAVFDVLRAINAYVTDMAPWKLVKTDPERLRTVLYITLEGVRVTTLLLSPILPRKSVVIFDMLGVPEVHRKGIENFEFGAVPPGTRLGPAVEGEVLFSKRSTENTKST

[5] = Counterscreen for inhibitors of Trypanosoma brucei methionyl tRNA synthetase (MetRS): Luminescence-based cell-based high throughput dose response assay to identify compounds that are cytotoxic to Jurkat human T lymphocyte cells.; assay type: functional
[6] = target: T2, Methionyl-tRNA synthetase, putative; assay type: functional, Trypanosoma brucei brucei strain 927/4 GUTat10.1; remark: listed apart in the source
Galanin receptor type 3 = target: T3, Galanin receptor type 3 (Homo sapiens, UniProt O60755); experiment: Fluorescence-based cell-based primary high throughput dose response assay to identify antagonists of the Galanin Receptor 3 (GalR3).; assay type: functional
T3 sequence (O60755 whole entry): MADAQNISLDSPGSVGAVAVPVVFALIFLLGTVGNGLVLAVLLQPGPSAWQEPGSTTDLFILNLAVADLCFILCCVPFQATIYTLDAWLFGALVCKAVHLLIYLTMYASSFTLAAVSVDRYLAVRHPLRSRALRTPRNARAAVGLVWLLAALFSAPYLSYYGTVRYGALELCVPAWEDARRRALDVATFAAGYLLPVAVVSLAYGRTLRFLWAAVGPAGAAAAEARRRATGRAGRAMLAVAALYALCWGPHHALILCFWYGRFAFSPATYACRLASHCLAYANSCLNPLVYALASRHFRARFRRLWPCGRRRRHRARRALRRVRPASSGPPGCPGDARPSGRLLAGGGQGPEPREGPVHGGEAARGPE

cells [7] = assay type: functional, cell-based; conditions: HEK-CNG
fMet-Leu-Phe receptor = target: T4, fMet-Leu-Phe receptor (Homo sapiens, UniProt P21462); experiment: FPR ligands, dose response (AID 519); assay type: functional
T4 sequence (P21462 whole entry): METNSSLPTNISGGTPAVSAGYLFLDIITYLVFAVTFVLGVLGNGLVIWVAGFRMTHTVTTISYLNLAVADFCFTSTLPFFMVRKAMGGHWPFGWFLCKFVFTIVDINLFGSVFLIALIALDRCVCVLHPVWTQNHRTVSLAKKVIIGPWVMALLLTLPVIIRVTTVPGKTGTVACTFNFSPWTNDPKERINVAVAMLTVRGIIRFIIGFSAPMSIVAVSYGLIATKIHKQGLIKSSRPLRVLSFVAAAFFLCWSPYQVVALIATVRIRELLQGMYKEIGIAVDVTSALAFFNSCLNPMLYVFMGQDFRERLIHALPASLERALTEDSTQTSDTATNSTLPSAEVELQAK

Cytochrome P450 3A4 = Cytochrome P450 3A4 (Homo sapiens, UniProt P08684);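 also: CYP3A4 tested as one member of a cytochrome P450 panel screen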
[8] = Luminescence Cell-Based Dose Retest to Confirm Inhibitors of Cancer Stem Cells. [Related pubchem assays (depositor defined):AID2717, AID2721]; assay type: functional; conditions: Homo sapiens
[9] = inhibitors of PGC1a acetylation in cells, dose response, cell-based, cherry-picked samples (AID 720514); assay type: functional;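 also: potency may reflect raised or lowered acetylation signal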
Prothrombin = Prothrombin (Homo sapiens, UniProt P00734); experiment: Thrombin 1536 HTS Dose Response Confirmation. [Related pubchem assays: 1046 (Thrombin 1536 HTS; hits were confirmed in this assay)]; assay type: functional
[10] = target: T5, Long-chain-fatty-acid--AMP ligase FadD28 (Mycobacterium tuberculosis, UniProt P9WQ59); experiment: Fluorescence polarization aasay to screen for inhibitors that compete for the binding of FadD28 to a bisubstrate Measured in Biochemical System Using Plate Reader - 2147-01_Inhibitor_Dose_CherryPick_Activity.; assay type: functional, Mycobacterium tuberculosis H37Rv
T5 sequence (P9WQ59 whole entry): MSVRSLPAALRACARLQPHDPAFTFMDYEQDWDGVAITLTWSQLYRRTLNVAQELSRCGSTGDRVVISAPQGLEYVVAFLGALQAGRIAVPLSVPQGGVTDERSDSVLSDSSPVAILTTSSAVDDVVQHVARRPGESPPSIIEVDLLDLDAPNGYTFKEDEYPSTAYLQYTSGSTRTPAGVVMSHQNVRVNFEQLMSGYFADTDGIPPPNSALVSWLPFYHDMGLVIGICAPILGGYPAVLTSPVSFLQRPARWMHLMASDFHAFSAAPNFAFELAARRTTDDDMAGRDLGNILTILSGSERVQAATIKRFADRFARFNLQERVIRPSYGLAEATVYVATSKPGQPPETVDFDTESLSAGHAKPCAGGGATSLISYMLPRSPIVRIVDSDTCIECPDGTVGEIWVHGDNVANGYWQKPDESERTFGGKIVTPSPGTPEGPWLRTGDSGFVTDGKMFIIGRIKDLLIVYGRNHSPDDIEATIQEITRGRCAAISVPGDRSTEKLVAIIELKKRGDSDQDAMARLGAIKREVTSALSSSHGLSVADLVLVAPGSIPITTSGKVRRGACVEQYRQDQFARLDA

Paired box protein Pax-8 = Paired box protein Pax-8 (Homo sapiens, UniProt Q06710); experiment: inhibitors of PAX8-driven TPO luciferase reporter, dose response, RMG-I cells, cherry-pick (AID 687027); assay type: functional, cell-based;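 also: luciferase reporter driven by Pax8 target thyroperoxidase promoter measured by SteadyGlo luminescence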
[11] = P. falciparum 3D7-ScDHODH growth inhibitors, dose response, SYBR Green, dry powder samples (AID 1159570); assay type: functional, cell-based;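 also: parasite growth measured after 72 hours of compound exposure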
[12] = HepG2 cell cytotoxicity, dose response, cytotoxicity control, plate reader, dry powder samples (AID 1159569); assay type: functional, cell-based;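 also: inhibitor potency with signal falling toward the positive control level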
[13] = P. falciparum Dd2 growth inhibitors, dose response, SYBR Green, cherry-picked samples (AID 1159567); assay type: functional, cell-based
[14] = P. falciparum Dd2 growth inhibitors, dose response, SYBR Green, dry powder samples (AID 1159566); assay type: functional, cell-based;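 also: potency for growth inhibition with lower SYBR green DNA signal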
[15] = P. falciparum ATP4 D1247Y mutant growth inhibitors, dose response, NITD609-resistant line, SYBR Green, dry powder (AID 1159571); assay type: functional, cell-based;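 also: parasites synchronized at ring stage by sorbitol before testing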
[16] = cytotoxicity in OVCAR8 ovarian cancer cells, dose response, PAX8 project, cell-based, plate reader, dry powder samples (AID 743197); assay type: functional; conditions: OVCAR-8
[17] = NIH:OVCAR-3 ovarian cancer cell cytotoxicity, dose response, PAX8 inhibitor project, plate reader, dry powder samples (AID 743044); assay type: functional, cell-based
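For EC50 in this document: target is galanin receptor GalR3 read with a cAMP biosensor in HEK293 cells.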

## CCOc1ccc(NC(=O)CCSc2ccc3ccccc3n2)cc1
Major prion protein
  IC50: 9.01 µM (active)
Cells [1]
  IC50: > 138 µM (inactive)

## CCOc1cc(N2CCOCC2)c(OCC)cc1NS(=O)(=O)c1ccc(Cl)s1
Large T antigen
  IC50: 61.4 µM (active)
[2]
  CC50: > 40 µM (active)

## O=C(NCCc1cn2ccccc2n1)c1cc(COc2ccc3ncccc3c2)on1
INS1
  AC50: 6 µM (active)
[3]
  IC50: 8.53 µM (active)

## Cc1cccc(NS(=O)(=O)c2c(C)[nH]c(C)c2C(=O)N2CCCC2)c1
[4]
  IC50: 35.4 µM (inactive)
[5]
  IC50: 83.3 µM (inactive)
[6]
  IC50: 11.8 µM (inactive)

## CC(=O)c1ccc(N2CCN(C(S)=Nc3ccc(Oc4ccccc4)cc3)CC2)cc1
Galanin receptor type 3
  IC50: 1.23 µM (active)
Cells [7]
  EC50: > 29.9 µM (inactive)
[3]
  IC50: 8.27 µM (active)

## CCC(NC(=O)Nc1cc(OC)c(OC)c(OC)c1)(C(F)(F)F)C(F)(F)F
fMet-Leu-Phe receptor
  Ki: > 66.7 µM (inactive)
Cytochrome P450 3A4
  AC50: 15.8 µM (inconclusive)

## CSCC[C@@H](Nc1nc(-c2ccccc2)nc2c1oc1ccccc12)C(=O)O
[2]
  CC50: > 40 µM (active)

## O=C(Nc1ccc(N2CCN(Cc3ccccc3F)CC2)cc1)c1ccc([N+](=O)[O-])o1
[8]
  AC50: 1.29 µM (active)
[9]
  AC50: 1.58 µM (active)

## COC(=O)CSc1ccnc2cc(Cl)ccc12
Major prion protein
  IC50: 5.16 µM (active)
Cells [1]
  IC50: > 138 µM (inactive)

## CCC(=O)N=C(Nc1cccc(OC)c1)Nc1nc(C)cc(C)n1
Prothrombin
  IC50: 0.268 µM (active)

## COC(=O)COc1ccc(Cl)cc1C1Nc2ccccc2C(=O)N1c1ccc(OC)cc1 (stereo not given)
[10]
  AC50: > 100 µM (inactive)

## ClC1(Cl)CC1CSc1nc[nH]n1 (stereo not given)
Prothrombin
  IC50: > 50 µM (not active)

## NC(=O)CSc1nc(-c2ccccc2)nc2ccccc12
Major prion protein
  IC50: 6.23 µM (active)
Cells [1]
  IC50: > 138 µM (inactive)

## C=CS(=O)(=O)N(Cc1ccccc1Br)[C@H](CO)Cc1ccccc1
[9]
  AC50: 1.05 µM (active)

## OC(c1cc(F)cc(Cl)c1)c1nc(-c2ccc3ccccc3c2)c[nH]1 (stereo not given)
[4]
  IC50: 1.46 µM (active)
[5]
  IC50: 83.3 µM (inactive)
[6]
  IC50: 2.45 µM (active)

## C[C@H](CO)N1C[C@H](C)[C@@H](CN(C)Cc2ccc(Oc3ccccc3)cc2)OCc2ccccc2-c2c(n(C)c3ccccc23)C1=O
Paired box protein Pax-8
  AC50: 17.1 µM (active)
[11]
  AC50: 3.28 µM (active)
[12]
  AC50: 20.3 µM (active)
[13]
  AC50: 2.58 µM (active)
[14]
  AC50: 2.58 µM (active)
[15]
  AC50: 2.82 µM (active)

## C[C@H](CO)N1C[C@H](C)[C@H](CN(C)Cc2ccc(C(F)(F)F)cc2)Oc2ccc(NS(=O)(=O)c3ccc(F)cc3)cc2CC1=O
Paired box protein Pax-8
  AC50: 11.4 µM (active)
[16]
  AC50: 52.5 µM (active)

## C[C@@H]1CCCCO[C@@H](CN(C)C(=O)Nc2cccc3ccccc23)[C@H](C)CN([C@H](C)CO)C(=O)c2cc(NS(=O)(=O)c3ccc(Cl)cc3)ccc2O1
Paired box protein Pax-8
  AC50: 5.29 µM (active)
[17]
  AC50: 36.6 µM (active)
[16]
  AC50: 32.4 µM (active)

## Cc1cccc(OCC(=O)N/N=C\c2cn(C)c3ccccc23)c1
[10]
  AC50: 14.6 µM (active)

## COc1ccc(-c2ccccc2[C@H]2[C@@H](C#N)N(C(=O)NC3CCCC3)[C@H]2CO)cc1
[11]
  AC50: 1.21 µM (active)
[12]
  AC50: 65.8 µM (active)
[13]
  AC50: 1.9 µM (active)
[14]
  AC50: 1.27 µM (active)
[15]
  AC50: 1.72 µM (active)
